In US11230543B2, “Biaryl monobactam compounds and methods of use thereof for the treatment of bacterial infections” (priority 2015, dated 2022):
Where a name gives a salt, the structure may show the parent alone.

Columns and labels:
[1] = system: Klebsiella pneumoniae expressing KPC-1 (CL6569); assay: Antibiotic activity: growth inhibitory concentration (OD600), Klebsiella pneumoniae CL6569; format: cell-based; conditions: lowest concentration inhibiting 95% of bacterial growth; in the presence of β lactamase inhibitor Relebactam 4 μg/mL; 35±2° C. for 22 hours; tested range 100 μM to 0.098 μM
How it was run: (§1)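 Growth inhibition by OD600 after 22 hours incubation at 35±2° C, reported as lowest concentration inhibiting 95% of growth (MITC95). Final compound range 100 μM to 0.098 μM, always combined with β-lactamase inhibitor relebactam (4 μg/mL final); inoculum ~2×10^5 CFU/mL in cation-adjusted Mueller-Hinton II broth.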

[2] = system: Pseudomonas aeruginosa expressing AmpC (CL5701); assay: Antibiotic activity: growth inhibitory concentration (OD600), Pseudomonas aeruginosa CL5701; format: cell-based; conditions: lowest concentration inhibiting 95% of bacterial growth; in the presence of β lactamase inhibitor Relebactam 4 μg/mL; 35±2° C. for 22 hours; tested range 100 μM to 0.098 μM
How it was run: as §1

SMILES	KP_CL6569 MITC95 [1] [µM]	PA_CL5701 MITC95 [2] [µM]
Cn1c(-c2ccc(OC[C@H](O/N=C(\C(=O)N[C@@H]3C(=O)N(OS(=O)(=O)O)C3(C)C)c3csc(N)n3)C(=O)O)cc2)cn(CCCN)c1=NCCN (stereo in doubt) [Example 57, (S)-3-(4-((Z)-2-((2-aminoethyl)imino)-1-(3-aminopropyl)-3-methyl-2,3-dihydro-1H-imidazol-4-yl)phenoxy)-2-((((Z)-1-(2-aminothiazol-4-yl)-2-(((S)-2,2-dimethyl-4-oxo-1-(sulfooxy)azetidin-3-yl)amino)-2-oxoethylidene)amino)oxy)propanoic acid]	0.1953	3.125
C[n+]1cc(-c2ccc(OC[C@H](O/N=C(\C(=O)N[C@@H]3C(=O)N(OS(=O)(=O)[O-])C3(C)C)c3csc(N)n3)C(=O)O)cc2)cn1CC1CNC1 [Example 16, (S)-3-((Z)-2-(2-aminothiazol-4-yl)-2-(((S)-2-(4-(1-(azetidin-3-ylmethyl)-2-methyl-1H-pyrazol-2-ium-4-yl)phenoxy)-1-carboxy-ethoxy)imino)acetamido)-2,2-dimethyl-4-oxoazetidin-1-yl sulfate]	0.3906	3.125
C[n+]1cc(-c2ccc(OC[C@](C)(O/N=C(\C(=O)N[C@@H]3C(=O)N(OS(=O)(=O)O)C3(C)C)c3csc(N)n3)C(=O)O)cc2)cn1CCCN (single isomer, unassigned) [Example 23B, 2,2,2-trifluoroacetate]	3.125	25
C[n+]1cc(-c2ccc(OC[C@H](O/N=C(\C(=O)N[C@@H]3C(=O)N(OS(=O)(=O)[O-])C3(C)C)c3csc(N)n3)C(=O)O)cc2)ccc1NC(CN)CN [Example 82, (S)-3-((Z)-2-(2-aminothiazol-4-yl)-2-(((S)-1-carboxy-2-(4-(6-((1,3-diaminopropan-2-yl)amino)-1-methylpyridin-1-ium-3-yl)phenoxy)ethoxy)imino)acetamido)-2,2-dimethyl-4-oxoazetidin-1-yl sulfate]	0.1953	3.125
C[n+]1cc(-c2ccc(OC[C@H](O/N=C(\C(=O)N[C@@H]3C(=O)N(OS(=O)(=O)O)C3(C)C)c3csc(N)n3)C(=O)O)c(F)c2)cn1CCCN [Example 15, 1-(3-aminopropyl)-4-(4-((S)-2-((((Z)-1-(2-aminothiazol-4-yl)-2-(((S)-2,2-dimethyl-4-oxo-1-(sulfooxy)azetidin-3-yl)amino)-2-oxo-ethylidene)amino)oxy)-2-carboxyethoxy)-3-fluorophenyl)-2-methyl-1H-pyrazol-2-ium, TFA salt (1:1)]	0.3906	6.25
C[C@@H](COc1ccc(-c2ccc(NCCN)[n+](C)c2)cc1)O/N=C(\C(=O)N[C@@H]1C(=O)N(OS(=O)(=O)O)C1(C)C)c1csc(N)n1 [Example 90, (S)-3-((Z)-2-((((S)-1-(4-(6-((2-aminoethyl)amino)-1-methylpyridin-1-ium-3-yl)phenoxy)propan-2-yl)oxy)imino)-2-(2-aminothiazol-4-yl)acetamido)-2,2-dimethyl-4-oxoazetidin-1-yl sulfate]	1.563	25
C[n+]1cc(-c2ccc(OC[C@H](O/N=C(\C(=O)N[C@@H]3C(=O)N(OS(=O)(=O)[O-])C3(C)C)c3csc(N)n3)C(=O)O)cc2)ccc1C(=O)NC(CN)CN [Example 80, (S)-3-((Z)-2-(2-aminothiazol-4-yl)-2-(((S)-1-carboxy-2-(4-(6-((1,3-diaminopropan-2-yl)carbamoyl)-1-methylpyridin-1-ium-3-yl)phenoxy)ethoxy)imino)acetamido)-2,2-dimethyl-4-oxoazetidin-1-yl sulfate]	0.1953	3.125
CC1(C)[C@H](NC(=O)/C(=N\O[C@@H](COc2ccc(-c3cn(CCCN)cn3)cc2)C(=O)O)c2csc(N)n2)C(=O)N1OS(=O)(=O)O [Example 10, (S)-3-(4-(1-(3-Aminopropyl)-1H-imidazol-4-yl)phenoxy)-2-((((Z)-1-(2-aminothiazol-4-yl)-2-(((S)-2,2-dimethyl-4-oxo-1-(sulfooxy)azetidin-3-yl)amino)-2-oxoethylidene)amino)oxy)propanoic acid]	0.3906	6.25
C[n+]1ccc(-c2ccc(OC[C@H](O/N=C(\C(=O)N[C@@H]3C(=O)N(OS(=O)(=O)[O-])C3(C)C)c3csc(N)n3)C(=O)O)cc2)cc1NCC1CNC1 [Example 65, (S)-3-((Z)-2-(2-aminothiazol-4-yl)-2-(((S)-2-(4-(2-((azetidin-3-ylmethyl)amino)-1-methylpyridin-1-ium-4-yl)phenoxy)-1-carboxy-ethoxy)imino)acetamido)-2,2-dimethyl-4-oxoazetidin-1-yl sulfate]	0.3906	12.5
C[n+]1cc(-c2ccc(OC[C@H](O/N=C(\C(=O)N[C@@H]3C(=O)N(OS(=O)(=O)[O-])C3(C)C)c3nc(N)sc3Cl)C(=O)O)cc2F)ccc1NCCN [Example 69, (S)-3-((Z)-2-(2-amino-5-chlorothiazol-4-yl)-2-(((S)-2-(4-(6-((2-aminoethyl)amino)-1-methylpyridin-1-ium-3-yl)-3-fluorophenoxy)-1-carboxyethoxy)imino)acetamido)-2,2-dimethyl-4-oxoazetidin-1-yl sulfate]	0.3906	3.125
CC1(C)[C@H](NC(=O)/C(=N\O[C@@H](COc2ccc(-c3cn(CCCN)nc3N)cc2)C(=O)O)c2csc(N)n2)C(=O)N1OS(=O)(=O)O [Example 27, (S)-3-(4-(3-amino-1-(3-aminopropyl)-1H-pyrazol-4-yl)phenoxy)-2-((((Z)-1-(2-aminothiazol-4-yl)-2-(((S)-2,2-dimethyl-4-oxo-1-(sulfooxy)azetidin-3-yl)amino)-2-oxoethylidene)amino)oxy)propanoic acid]	0.7813	6.25
C[n+]1cc(-c2ccc(NCC(O/N=C(\C(=O)N[C@@H]3C(=O)N(OS(=O)(=O)[O-])C3(C)C)c3csc(N)n3)C(=O)O)cc2)cn1CCCN (stereo partly drawn) [Example 91, (3S)-3-(2-((2-((4-(1-(3-aminopropyl)-2-methyl-1H-pyrazol-2-ium-4-yl)phenyl)amino)-1-carboxyethoxy)imino)-2-(2-aminothiazol-4-yl)acetamido)-2,2-dimethyl-4-oxoazetidin-1-yl sulfate]	0.7813	12.5
C[n+]1c(N)c(-c2ccc(OC[C@H](O/N=C(\C(=O)N[C@@H]3C(=O)N(OS(=O)(=O)[O-])C3(C)C)c3csc(N)n3)C(=O)O)cc2F)cn1CCCN [Example 47, (S)-3-((Z)-2-(((S)-2-(4-(3-Amino-1-(3-aminopropyl)-2-methyl-1H-pyrazol-2-ium-4-yl)-3-fluorophenoxy)-1-carboxyethoxy)imino)-2-(2-aminothiazol-4-yl)acetamido)-2,2-dimethyl-4-oxoazetidin-1-yl sulfate]	0.3906	3.125
C[C@H]1[C@H](NC(=O)/C(=N\O[C@@H](COc2ccc(-c3cn(CCCN)[n+](C)c3)cc2)c2nn[nH]n2)c2csc(N)n2)C(=O)N1S(=O)(=O)O.O=C([O-])C(F)(F)F [Example 30, 1-(3-aminopropyl)-4-(4-((R)-2-((((Z)-1-(2-aminothiazol-4-yl)-2-(((2S,3S)-2-methyl-4-oxo-1-sulfoazetidin-3-yl)amino)-2-oxoethylidene)amino)oxy)-2-(2H-tetrazol-5-yl)ethoxy)phenyl)-2-methyl-1H-pyrazol-2-ium 2,2,2-trifluoroacetate]	3.125	6.25
C[n+]1cc(-c2ccc(OCC(O/N=C(\C(=O)N[C@@H]3C(=O)N(OS(=O)(=O)O)C3(C)C)c3csc(N)n3)P(=O)(O)O)cc2)cn1CCCN (stereo partly drawn) [Example 40, (3S)-3-((Z)-2-((2-(4-(1-(3-aminopropyl)-2-methyl-1H-pyrazol-2-ium-4-yl)phenoxy)-1-phosphonoethoxy)imino)-2-(2-aminothiazol-4-yl)acetamido)-2,2-dimethyl-4-oxoazetidin-1-yl sulfate]	3.125	50
CC1(C)[C@H](NC(=O)/C(=N\O[C@@H](COc2ccc(-n3ccn(CCCN)c3=N)nc2)C(=O)O)c2csc(N)n2)C(=O)N1OS(=O)(=O)O [Example 118, (S)-3-((6-(3-(3-aminopropyl)-2-imino-2,3-dihydro-1H-imidazol-1-yl)pyridin-3-yl)oxy)-2-((((Z)-1-(2-aminothiazol-4-yl)-2-(((S)-2,2-dimethyl-4-oxo-1-(sulfooxy)azetidin-3-yl)amino)-2-oxoethylidene)amino)oxy)propanoic acid]	0.3906	6.25
C[n+]1cc(-c2ccc(OC[C@H](O/N=C(\C(=O)N[C@@H]3C(=O)N(OS(=O)(=O)O)C3(C)C)c3csc(N)n3)C(=O)O)cc2)cn1CCCNCCCN [Example 104, (S)-3-((E)-2-(((S)-2-(4-(1-(3-((3-aminopropyl)amino)-propyl)-2-methyl-1H-pyrazol-2-ium-4-yl)phenoxy)-1-carboxyethoxy)imino)-2-(2-aminothiazol-4-yl)acetamido)-2,2-dimethyl-4-oxoazetidin-1-yl sulfate, 3TFA]	0.1953	6.25
CC1(C)[C@H](NC(=O)/C(=N\O[C@@H](COc2ccc(-n3cc[n+](CCCN)c3)nc2)C(=O)O)c2csc(N)n2)C(=O)N1OS(=O)(=O)[O-] [Example 36, (S)-3-((Z)-2-(((S)-2-((6-(3-(3-aminopropyl)-1H-imidazol-3-ium-1-yl)pyridin-3-yl)oxy)-1-carboxyethoxy)imino)-2-(2-aminothiazol-4-yl)acetamido)-2,2-dimethyl-4-oxoazetidin-1-yl sulfate compound with 2,2,2-trifluoroacetic acid (1:1)]	0.7813	6.25
